In PubChem BioAssay AID2060895 (Molecular Pharmacology Branch, DTP, NCI, 2025):

System: PDC 899932-113-R3-J6 complex spheroid viability
Experiment: Anticancer human tumor 899932-113-R3-J6-PDC patient-derived melanoma cell line growth inhibition [RAS]
Details: for IC50: curve of first compound; for viability, T/C: stronger effect = lower value
Source text: RAS pathway inhibitors in Combinations in Complex Spheroids
A high-throughput screen of multi-cell type tumor spheroids was designed to identify active combinations of RAS pathway inhibitors and targeted small molecules. Complex spheroids include a stromal component modeled by human endothelial cells (HUVEC) and fibroblasts modeled by human mesenchymal stem cells (MSCs). The concentration ranges selected for each drug and investigational agent were based upon clinically achievable concentrations if the clinical Cmax of the agent was known.
Compounds. The drugs and investigational agents: abemaciclib (NSC768073), cobimetinib (NSC768068), divarasib (GDC6063, NSC841802), docetaxel (NSC628503), GDC-1971 (RLY-1971, NSC841576), gemcitabine (NSC613327), inavolisib (NSC800729), ipatasertib (NSC767898), KB-0742 (NSC834161), MRTX-1133 (NSC836407), osimertinib (NSC779217), RMC-4630 (NSC839698), RMC-6236 (NSC851965), RMC-6291 (NSC852671), Ro-3306 (NSC812927), sapanisertib (NSC764658), SN-38 (NSC673596), staurosporine (NSC755774), SY5609 (NSC837396), and tovorafenib (DAY101, NSC766906), were obtained from the National Cancer Institute (NCI) Developmental Therapeutics Program Chemical Repository. The FDA-approved anticancer drug set is available from the NCI Developmental Therapeutics Program. […] The stock solutions were prepared in dimethyl sulfoxide (DMSO, Sigma-Aldrich, St. Louis, MO, cat. D2650) at 800-fold the tested concentration and stored at -70 degrees C prior to their use. All drugs and investigational agents were tested over a range starting from a high concentration at or near the clinical Cmax and decreasing in half-log increments. If the clinical Cmax for an agent had not been determined, the highest concentration tested was 10 microM.
Cell Culture. All cells were maintained in an incubator at 37 degrees C and 5% CO2 with 95% humidity. The PDC lines were cultured according to standard operating procedures established by the NCI PDMR. All PDCs were thawed and cultured in Matrigel-coated flasks prepared with a working solution of 1X Ham's F-12 nutrient mix, without supplementation (Invitrogen, Waltham, MA, cat. 11765054), 100 U/mL penicillin-streptomycin (Invitrogen, cat. 15140122), and 2.5% Matrigel (Corning Inc., Corning, NY, cat. 354248) for the first three passages. The 362531-283-R-J2-PDC and 782815-120-R-J1-PDC lines were cultured in 6C/Colon 1B media, which includes advanced DMEM/F-12 (Thermo Fisher Scientific, cat. 12634028), 10 mM HEPES (Thermo Fisher Scientific, cat. 15630080), 1X GlutaMAX supplement (Thermo Fisher Scientific, cat. 35050061), 0.1 mg/mL primocin (InvivoGen, San Diego, CA, cat. ant-pm-2), 10% defined fetal bovine serum, heat inactivated (HyClone Laboratories Inc., Logan, UT, cat. SH30070.03HI), 50% L-WRN conditioned media (ATCC, cat. CRL-3276), 1.25 mM N-Acetyl-L-cysteine (Sigma-Aldrich, cat. A9165), 10 mM nicotinamide (Sigma-Aldrich, cat. N0636), 1X B-27 supplement (Thermo Fisher Scientific, cat. 17504044), 1X N-2 supplement (Thermo Fisher Scientific, cat. 17502048), 50 ng/mL human EGF (Thermo Fisher Scientific, cat. PHG0311), and 10 microM Y-27632 dihydrochloride (Tocris Bioscience, cat. 1254). The K12877-001-R-J1-PDC line was cultured in 6I media, which includes all 6C/Colon 1B media plus 10 ng/mL human FGF-10 (PeproTech, cat. 100-26), 1 ng/mL human FGF-2 (PeproTech, cat. 100-18B), 1 µM prostaglandin E2 (Tocris Bioscience, cat. 2296), […] hydrocortisone (Sigma-Aldrich, cat. H4001), and […] bovine insulin (Sigma-Aldrich, cat. I6634). The K86415-001-R-J1-PDC line was cultured in 6D media, which includes all 6C/Colon 1B media components minus the L-WRN conditioned media. The 485176-168-R4-J1-PDC was cultured in PANC media, which includes all 6C/Colon 1B media plus 100 ng/mL human FGF-10 (PeproTech, cat. 100-26), 500 nM SB-431542 (Selleckchem, cat. S1067), and 10 nM gastrin (Tocris Bioscience, cat. 3006). […]

[1] = second compound 0.0316 µM, first compound 0.0316 µM
[2] = second compound 0.0316 µM, first compound 0.1 µM
[3] = second compound 0.0316 µM, first compound 0.316 µM
[4] = second compound 0.0316 µM, first compound 1 µM
[5] = second compound 0.0316 µM, first compound 3.16 µM
[6] = second compound 0.0316 µM, first compound 10 µM
[7] = second compound 0.1 µM, first compound 0.0316 µM
[8] = second compound 0.1 µM, first compound 0.1 µM
[9] = second compound 0.1 µM, first compound 0.316 µM
[10] = second compound 0.1 µM, first compound 1 µM
[11] = second compound 0.1 µM, first compound 3.16 µM
[12] = second compound 0.1 µM, first compound 10 µM
[13] = second compound 0.316 µM, first compound 0.0316 µM
[14] = second compound 0.316 µM, first compound 0.1 µM
[15] = second compound 0.316 µM, first compound 0.316 µM
[16] = second compound 0.316 µM, first compound 1 µM
[17] = second compound 0.316 µM, first compound 3.16 µM
[18] = second compound 0.316 µM, first compound 10 µM
[19] = second compound 1 µM, first compound 0.0316 µM
[20] = second compound 1 µM, first compound 0.1 µM
[21] = second compound 1 µM, first compound 0.316 µM
[22] = second compound 1 µM, first compound 1 µM
[23] = second compound 1 µM, first compound 3.16 µM
[24] = second compound 1 µM, first compound 10 µM
[25] = second compound 3.16 µM, first compound 0.0316 µM
[26] = second compound 3.16 µM, first compound 0.1 µM
[27] = second compound 3.16 µM, first compound 0.316 µM
[28] = second compound 3.16 µM, first compound 1 µM
[29] = second compound 3.16 µM, first compound 3.16 µM
[30] = second compound 3.16 µM, first compound 10 µM
[31] = second compound 10 µM, first compound 0.0316 µM
[32] = second compound 10 µM, first compound 0.1 µM
[33] = second compound 10 µM, first compound 0.316 µM
[34] = second compound 10 µM, first compound 1 µM
[35] = second compound 10 µM, first compound 3.16 µM
[36] = second compound 10 µM, first compound 10 µM
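Wherever viability, T/C is given: spheroids exposed to agents for seven days before readout; 100% = DMSO vehicle control wells.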

`CCC(CC)c1cc(NC2CCC(N)C2)n2nccc2n1` (stereo unspecified) + C#Cc1c(F)ccc2cc(O)cc(-c3ncc4c(N5CC6CCC(C5)N6)nc(OCC56CCCN5CC(F)C6)nc4c3F)c12 showed an IC50 (second compound 0.0316 µM) of 1.69 µM, an IC50 (second compound 0.1 µM) of 1.64 µM and an IC50 (second compound 0.316 µM) of 1.66 µM. It also gave an IC50 (second compound 1 µM) of 1.74 µM, an IC50 (second compound 3.16 µM) of 1.79 µM and an IC50 (second compound 10 µM) of 1.72 µM. For the same molecule, the viability, T/C [1] was 96.8%, the viability, T/C [2] was 91.5% and the viability, T/C [3] was 103%. It also gave a viability, T/C [4] of 91.5%, a viability, T/C [5] of 0.88% and a viability, T/C [6] of 0.24%. It also gave a viability, T/C [7] of 104%, a viability, T/C [8] of 104% and a viability, T/C [9] of 92.9%. It also gave a viability, T/C [10] of 87.3%, a viability, T/C [11] of 0.78% and a viability, T/C [12] of 0.23%. The viability, T/C [13] was 107%, the viability, T/C [14] was 93.9% and the viability, T/C [15] was 98.5%. For the same molecule, the viability, T/C [16] was 88.3%, the viability, T/C [17] was 0.84% and the viability, T/C [18] was 0.9%. It also gave a viability, T/C [19] of 112%, a viability, T/C [20] of 112% and a viability, T/C [21] of 120%. For the same molecule, the viability, T/C [22] was 95.2%, the viability, T/C [23] was 1.22% and the viability, T/C [24] was 0.22%. The viability, T/C [25] was 103%, the viability, T/C [26] was 107% and the viability, T/C [27] was 107%. The viability, T/C [28] was 100%, the viability, T/C [29] was 0.97% and the viability, T/C [30] was 0.24%. For the same molecule, the viability, T/C [31] was 116%, the viability, T/C [32] was 105% and the viability, T/C [33] was 105%. It also gave a viability, T/C [34] of 94.2%, a viability, T/C [35] of 0.5% and a viability, T/C [36] of 0.27%.

Work on `Cc1nc(N2CCC3(CC2)COC(C)C3N)c(CO)nc1Sc1ccnc(N)c1Cl` (stereo unspecified) + C#Cc1c(F)ccc2cc(O)cc(-c3ncc4c(N5CC6CCC(C5)N6)nc(OCC56CCCN5CC(F)C6)nc4c3F)c12 yielded an IC50 (second compound 0.0316 µM) greater than 10 µM, an IC50 (second compound 0.1 µM) greater than 10 µM and an IC50 (second compound 0.316 µM) greater than 10 µM. For the same molecule, the IC50 (second compound 1 µM) was greater than 10 µM, the IC50 (second compound 3.16 µM) was greater than 10 µM and the IC50 (second compound 10 µM) was greater than 10 µM. For the same molecule, the viability, T/C [1] was 98.1%, the viability, T/C [2] was 104% and the viability, T/C [3] was 108%. It also gave a viability, T/C [4] of 104%, a viability, T/C [5] of 118% and a viability, T/C [6] of 119%. It also gave a viability, T/C [7] of 99.3%, a viability, T/C [8] of 99.1% and a viability, T/C [9] of 107%. It also gave a viability, T/C [10] of 103%, a viability, T/C [11] of 114% and a viability, T/C [12] of 123%. For the same molecule, the viability, T/C [13] was 111%, the viability, T/C [14] was 101% and the viability, T/C [15] was 96.3%. The viability, T/C [16] was 118%, the viability, T/C [17] was 117% and the viability, T/C [18] was 119%. For the same molecule, the viability, T/C [19] was 106%, the viability, T/C [20] was 109% and the viability, T/C [21] was 108%. The viability, T/C [22] was 113%, the viability, T/C [23] was 116% and the viability, T/C [24] was 122%. For the same molecule, the viability, T/C [25] was 126%, the viability, T/C [26] was 110% and the viability, T/C [27] was 108%. For the same molecule, the viability, T/C [28] was 112%, the viability, T/C [29] was 122% and the viability, T/C [30] was 121%. For the same molecule, the viability, T/C [31] was 106%, the viability, T/C [32] was 111% and the viability, T/C [33] was 112%. It also gave a viability, T/C [34] of 123%, a viability, T/C [35] of 113% and a viability, T/C [36] of 123%.

`NC1c2ccccc2OC12CCN(c1cnc3c(N4CCCc5ncccc54)n[nH]c3n1)CC2` (stereo unspecified) + C#Cc1c(F)ccc2cc(O)cc(-c3ncc4c(N5CC6CCC(C5)N6)nc(OCC56CCCN5CC(F)C6)nc4c3F)c12 was tested, and the IC50 (second compound 0.0316 µM) was greater than 10 µM, the IC50 (second compound 0.1 µM) was greater than 10 µM and the IC50 (second compound 0.316 µM) was greater than 10 µM. The IC50 (second compound 1 µM) was greater than 10 µM, the IC50 (second compound 3.16 µM) was greater than 10 µM and the IC50 (second compound 10 µM) was greater than 10 µM. The viability, T/C [1] was 108%, the viability, T/C [2] was 103% and the viability, T/C [3] was 117%. For the same molecule, the viability, T/C [4] was 121%, the viability, T/C [5] was 104% and the viability, T/C [6] was 98.8%. It also gave a viability, T/C [7] of 111%, a viability, T/C [8] of 115% and a viability, T/C [9] of 114%. It also gave a viability, T/C [10] of 114%, a viability, T/C [11] of 117% and a viability, T/C [12] of 96.4%. It also gave a viability, T/C [13] of 108%, a viability, T/C [14] of 120% and a viability, T/C [15] of 105%. It also gave a viability, T/C [16] of 116%, a viability, T/C [17] of 110% and a viability, T/C [18] of 96.6%. It also gave a viability, T/C [19] of 106%, a viability, T/C [20] of 104% and a viability, T/C [21] of 124%. For the same molecule, the viability, T/C [22] was 112%, the viability, T/C [23] was 105% and the viability, T/C [24] was 111%. For the same molecule, the viability, T/C [25] was 134%, the viability, T/C [26] was 112% and the viability, T/C [27] was 135%. The viability, T/C [28] was 133%, the viability, T/C [29] was 120% and the viability, T/C [30] was 107%. For the same molecule, the viability, T/C [31] was 123%, the viability, T/C [32] was 126% and the viability, T/C [33] was 120%. The viability, T/C [34] was 117%, the viability, T/C [35] was 112% and the viability, T/C [36] was 86.5%.
